Tests used:
[1] = biological target: constitutive proteasome β5c unit (Homo sapiens, UniProt P20618+P28074); test: Caliper-based proteasome enzymatic activity assay, β5c; type: biochemical; conditions: human recombinant constitutive proteasome 0.3 nM, FAM-peptide substrate 1 μM, 3 h at rt; read-out: β5c subunit IC50
Outline: (§1)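 Recombinant human immunoproteasome or constitutive proteasome (0.3 nM) with 1 μM FAM-peptide in 20 mM Hepes pH 7.4, 0.015% SDS, 0.01% BSA; LMP7/β5c ran 3 h at rt and were stopped with 5 uM carfilzomib, LMP2 ran 2 h and was stopped with 6.7 uM ixazomib. Cleaved product quantified by microfluidic separation; IC50 from percent inhibition.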

[2] = biological target: immunoproteasome LPM2/β1i subunit (Homo sapiens, UniProt P28065+P40306); test: Caliper-based proteasome enzymatic activity assay, LMP2; type: biochemical; conditions: human recombinant immunoproteasome 0.3 nM, FAM-peptide substrate 1 μM, 2 h at rt
Protocol: A Caliper-based proteasome assay (Caliper Life Sciences, Hopkinton, Mass.) was used to measure inhibition of the immunoproteasome LMP7/B5i subunit, the immunoproteasome LPM2/β1i subunit, and the constitutive proteasome β5c unit for a compound of Formula (I). For LMP7 and β5c, serial dilutions of test compounds were incubated with either human recombinant immunoprotcasome or constitutive proteasome (0.3 nM enzyme) and a carboxyfluorescein (FAM)-labeled peptide substrate FAM-TYETFKSIMKKSPF-NH2 (1 μM) at it for 3 h. The reaction was then terminated with a buffer containing the known proteasome inhibitor carfilzomib at a concentration of 5 uM. For LMP2, serial dilutions of test compounds were incubated with human recombinant immunoproteasome proteasome (0.3 nM enzyme) and a carboxyfluorescein (FAM)-labeled peptide substrate FAM-[…]-NH2 (1 μM) at rt for 2 h. The reaction was then terminated with a buffer containing the known proteasome inhibitor ixazomib at a concentration of 6.7 uM. The reaction buffer was 20 mM Hepes pH 7.4, 0.01% bovine serum albumin, 0.015% SDS, 0.5 mM EDTA, 1%0/DMSO. The peptide cleavage reaction product was quantified on a Caliper LabChip 3000. Percent inhibition was calculated for each compound dilution and the concentration that produced 50% inhibition was calculated. This value is presented as the IC50.

[3] = biological target: immunoproteasome LMP7/B5i subunit (Homo sapiens, UniProt P20618+P28062); test: Caliper-based proteasome enzymatic activity assay, LMP7; type: biochemical; conditions: human recombinant immunoproteasome 0.3 nM, FAM-peptide substrate 1 μM, 3 h at rt
Outline: as §1

PBMC/LMP7 = biological target: T1, PBMC/LMP7 (Homo sapiens, UniProt P28062); test: Inhibition of proteasome activity in cells (Proteasome-Glo), PBMC; type: cell-based; conditions: primary human PBMC, 2 h incubation, Suc-LLVY-aminoluciferin substrate
T1 construct: endogenous in cells; host or cells: primary human PBMC
Protocol: The cell-based effects of a compound described herein on the immunoproteasome are determined by measuring inhibition of proteasome activity in cells using the Proteasome-Glo™ Cell-Based Reagent (Promega, Madison Wis.). The Proteasome-Glo™ assay contains a specific luminogenic proteasome substrate in a buffer optimized for cell permeabilization, proteasome activity, and luciferase activity. For the chymotrypsin-like activity (LMP7 and […]), the peptide substrate is Suc-LLVY-aminoluciferin (Succinyl-leucine-leucine-valine-tyrosine-aminoluciferin). Cleavage of the substrate by proteasome results in luminescent signal which is proportional to the proteasome activity. The cell line THP-1 (a monocytic leukemia cell line enriched in immunoproteasome), the cell line HT-29 (a colorectal adenocarcinoma cell line enriched in constitutive proteasome), and primary human peripheral blood mononuclear cells (PBMC) are used to assess proteasome activity. Cells are seeded in a 96-well plate at 10,000 cells per well in RPMI 1640 high glucose medium with 10% fetal bovine serum (FBS). Compound dilutions are added to cells starting at a concentration of 5 uM and decreasing in tripling dilutions. The final DMSO concentration is 1%. The concentration range is adjusted as needed for compounds of different potencies. The cells treated with compounds are incubated for 2 h at 37° C. in 5% CO2. At the end of the 2 h incubation period, cells are transferred to white 384 well assay plates. 20 uL of Proteasome-Glo™ Reagent is added to each well and incubated for 10 min at rt. The plate is read in the Analyst HT instrument (Molecular Devices, Sunnyvale, Calif.) using luminescence mode. The percent inhibition of activity is plotted as a function of log compound concentration. The IC50 is then calculated for each compound using Prism software from GraphPad Software Inc. (San Diego, Calif.).

[4] = system: multiple myeloma cell lines and primary patient tumor cells; conditions: including cells resistant to conventional and novel prior therapies; cited from earlier work
[5] = system: murine DSS-induced colitis model; conditions: cited from earlier work
Th1/17 differentiation = conditions: human and mouse; cited from earlier work
MRL/lpr lupus model = conditions: cited from earlier work
[6] = system: Hashimoto's thyroiditis model; conditions: autoantibody-driven model; cited from earlier work
[7] = system: murine collagen-induced arthritis; conditions: including reduction of inflammation and bone erosion; cited from earlier work
prostate PC-3 cell line = conditions: in vitro; cited from earlier work
tumor growth = conditions: cited from earlier work

Compound	IC50 [1] [nM]	IC50 [2] [nM]	IC50 [3] [nM]	IC50 (PBMC/LMP7) [nM]	further results
CC(C)C=C(C#N)C(=O)N1CCCC1CCC(=O)N[C@@H](Cc1ccccc1)B(O)O (single isomer, unassigned) [Example 3]	> 5000	3430	60	130	
CC(C)C=C(C#N)C(=O)N1CCCCC1CCC(=O)N[C@@H](Cc1ccccc1)B(O)O (single isomer, unassigned) [Example 6]	> 5000	964	57	140	
CC(C)C=C(C#N)C(=O)N1CCCC[C@@H]1COC(=O)N[C@@H](Cc1ccccc1)B(O)O [Example 2, ((R)-1-(((((R)-1-(2-cyano-4-methylpent-2-enoyl)piperidin-2-yl)methoxy)carbonyl)amino)-2-phenylethyl)boronic acid]	> 5000	> 5000	55	420	
CC(C)C=C(C#N)C(=O)N1CCC[C@@H]1COC(=O)N[C@@H](Cc1ccccc1)B(O)O [Example 7, ((R)-1-(((((R)-1-(2-cyano-4-methylpent-2-enoyl)pyrrolidin-2-yl)methoxy)carbonyl)amino)-2-phenylethyl)boronic acid]	> 5000	> 5000	2.6	9.4	
CC(C)(C)C=C(C#N)C(=O)N1CCC[C@@H]1COC(=O)N[C@@H](Cc1ccccc1)B(O)O [Example 10, ((R)-1-(((((R)-1-(2-cyano-4,4-dimethylpent-2-enoyl)pyrrolidin-2-yl)methoxy)carbonyl)amino)-2-phenylethyl)boronic acid]	3410	> 5000	1.8	7.1	
CC(C)(C)C=C(C#N)C(=O)N1CCCC[C@@H]1COC(=O)N[C@@H](Cc1ccccc1)B(O)O [Example 15, ((R)-1-(((((R)-1-(2-cyano-4,4-dimethylpent-2-enoyl)piperidin-2-yl)methoxy)carbonyl)amino)-2-phenylethyl)boronic acid]	4190	> 5000	5.5	3.3	
CC(C)(C=C(C#N)C(=O)N1CCC[C@]1(C)COC(=O)N[C@@H](Cc1ccccc1)B(O)O)N1CCC(F)(F)C1 [Example 85, ((R)-1-(((((R)-1-(2-cyano-4-(3,3-difluoropyrrolidin-1-yl)-4-methylpent-2-enoyl)-2-methylpyrrolidin-2-yl)methoxy)carbonyl)amino)-2-phenylethyl)boronic acid]	4890	> 5000	2		
CC1=C(C(=O)N[C@H](C)C(=O)N[C@@H](Cc2c[nH]c3ccccc23)C(=O)N[C@@H](Cc2ccccc2)C(=O)[C@@]2(C)CO2)Cc2ccccc21 [PR-924]					growth of multiple myeloma cells [4]: inhibit growth
COc1ccc(C[C@H](NC(=O)[C@H](C)NC(=O)CN2CCOCC2)C(=O)N[C@@H](Cc2ccccc2)C(=O)[C@@]2(C)CO2)cc1 [PR-957]					inflammation and tissue destruction [5]: reduced inflammation and tissue destruction; block of Th1/17 differentiation (Th1/17 differentiation): potently block; disease progression (MRL/lpr lupus model): prevented disease progression; plasma cell numbers and anti-dsDNA IgG levels (MRL/lpr lupus model): reduced plasma cell numbers and anti-dsDNA IgG levels; efficacy in Hashimoto's thyroiditis model [6]: efficacious; disease activity in collagen-induced arthritis [7]: significantly inhibit disease activity
CCCCCCC(=O)N[C@@H](C)C(=O)N[C@@H](CC(C)C)C(=O)[C@@]1(CO[Si](C)(C)C(C)(C)C)CO1 [UK-101]					apoptosis of PC-3 cells (prostate PC-3 cell line): induced apoptosis; tumor growth in vivo (tumor growth): significantly suppressed tumor growth

Second part, led by results:

IC50 [1] [nM]	IC50 [2] [nM]	IC50 [3] [nM]	IC50 (PBMC/LMP7) [nM]	Compound	further results
637	2440	4	39	CC(C)C=C(C#N)C(=O)N1CCCC1CCC(=O)N[C@@H](Cc1ccccc1)B(O)O (single isomer, unassigned) [Example 4]	
1040	448	7.6	23	CC(C)C=C(C#N)C(=O)N1CCCCC1CCC(=O)N[C@@H](Cc1ccccc1)B(O)O (single isomer, unassigned) [Example 5]	
1460		79	190	CC(C)C=C(C#N)C(=O)N1CCC[C@@H]1COCCC(=O)N[C@@H](Cc1ccccc1)B(O)O [Example 1, ((R)-1-(3-(((R)-1-(2-cyano-4-methylpent-2-enoyl)pyrrolidin-2-yl)methoxy)propanamido)-2-phenylethyl)boronic acid]	
1220	> 5000	4.4		CC(C)(C=C(C#N)C(=O)N1CCCC[C@@H]1COC(=O)N[C@@H](Cc1ccc(C(F)(F)F)cc1)B(O)O)N1CCC(F)(F)C1 [Example 83, ((R)-1-(((((R)-1-(2-cyano-4-(3,3-difluoropyrrolidin-1-yl)-4-methylpent-2-enoyl)piperidin-2-yl)methoxy)carbonyl)amino)-2-(4-(trifluoromethyl)phenyl)ethyl)boronic acid]	
566	> 5000	2.7		Cc1ccc(C[C@H](NC(=O)OC[C@H]2COCCN2C(=O)C(C#N)=CC(C)(C)N2CCC(F)(F)C2)B(O)O)cc1 [Example 86, ((R)-1-(((((R)-4-(2-cyano-4-(3,3-difluorpyrrolidin-1-yl)-4-methylpent-2-enoyl)morpholin-3-yl)methoxy)carbonyl)amino)-2-(p-tolyl)ethyl)boronic acid]	
1960	4500	1		CC(C)(C)/C=C(\C#N)C(=O)N1C[C@H](F)C[C@@H]1COC(=O)N[C@@H](Cc1ccccc1)B(O)O [Example 90, ((R)-1-(((((2R,4R)-1-((E)-2-cyano-4,4-dimethylpent-2-enoyl)-4-fluoropyrrolidin-2-yl)methoxy)carbonyl)amino)-2-phenylethyl)boronic acid]	
1130	4490	0.7		CC(C)(C)/C=C(\C#N)C(=O)N1C[C@@H](F)C[C@@H]1COC(=O)N[C@@H](Cc1ccccc1)B(O)O [Example 102, ((R)-1-(((((2R,4S)-1-((E)-2-cyano-4,4-dimethylpent-2-enoyl)-4-fluoropyrrolidin-2-yl)methoxy)carbonyl)amino)-2-phenylethyl)boronic acid]	
1450	2160	2.7		CC(C)C[C@H](NC(=O)OC[C@H]1CCCCN1C(=O)C(C#N)=CC(C)(C)N1CCC(F)(F)C1)B(O)O [Example 105, ((R)-1-(((((R)-1-(2-cyano-4-(3,3-difluoropyrrolidin-1-yl)-4-methylpent-2-enoyl)piperidin-2-yl)methoxy)carbonyl)amino)-3-methylbutyl)boronic acid]	

From patent US11154563B2, “Immunoproteasome inhibitors” (Principia Biopharma Inc., priority 2017, dated 2021)
